The target of this assay is T1, recombinant human-MT1 receptor (Homo sapiens, UniProt P48039).
T1 construct: expressed in transfected cells; host or cells: unnamed cell line stably overexpressing human MT1, co-expressing mitochondrial apoaequorin and Gα16
The experiment in a line: In vitro MT1 screening, agonist activity (AequoScreen aequorin luminescence). Type of assay: cell-based. The conditions noted are these: percentage of activity relative to the reference agonist at the EC100 concentration; for activation at 0.001 µM: read-out: Agonism percentages of MT1, 1 nM; for activation at 0.1 µM: read-out: Agonism percentages of MT1, 100 nM. The source says:
To proceed with compound screening over MT1 receptor, a cell line characterised by a stable overexpression of recombinant human-MT1 receptor was used. This line co-expresses mitochondrial apoaequorin and subunit Gα16.
Subunit Gα16 belongs to […], in which intracelular signal transduction is produced via phospholipase (PLC). Activation of PLC produces an increment of inositol-triphosphate levels and intracellular calcium levels. This increment in calcium levels is, therefore, independent and full compatible with the signal transduction of MT1 receptor.
After binding to calcium, aequorin carries out the oxidation of colenterazine to colenteramide, a luminescent reaction.
Assay protocol for agonist screening consists in an overnight incubation of cells and colenterazine, being performed by an AequoScreen™ system instrument, PerkinElmer, USA. After that this mixture was injected over a plate that contains the solution of the compounds to screen and luminescence was immediately read. Only in case of antagonism screening, after 15-30 min of the first injection the reference agonist was added in the same well, and then luminescence was measured.
Agonist activity was calculated as percentage of activity relative to the reference agonist at the EC100 concentration. Activity of antagonists was expressed as the inhibition percentage over the activity of reference agonist at its EC80, concentration.

T1 sequence (P48039 whole entry): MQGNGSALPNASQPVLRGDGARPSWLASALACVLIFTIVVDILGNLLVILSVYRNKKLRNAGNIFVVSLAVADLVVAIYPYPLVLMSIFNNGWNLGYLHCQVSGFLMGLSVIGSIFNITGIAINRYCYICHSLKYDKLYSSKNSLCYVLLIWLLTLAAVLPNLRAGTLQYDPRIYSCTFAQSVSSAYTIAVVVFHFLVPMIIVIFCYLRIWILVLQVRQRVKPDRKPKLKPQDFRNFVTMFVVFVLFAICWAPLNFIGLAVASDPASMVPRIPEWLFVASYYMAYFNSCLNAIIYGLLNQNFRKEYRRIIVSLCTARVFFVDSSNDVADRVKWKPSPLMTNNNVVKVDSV

Consider `CC(=O)NCCc1c[nH]c2cc(F)c3c(c12)CCO3` [Compound 13, N-[2-(4-Fluoro-1,6-dihydro-2H-3-oxa-6-aza-as-indacen-8-yl)-ethyl]-acetamide], for which the activation at 0.001 µM (1 nM compound) worked out at 37.7%. Further, under “100 nM compound”, the activation at 0.1 µM is 92.9%.
Turning to `CCC(=O)NCCc1c[nH]c2cc(F)c3c(c12)CCO3` [Compound 14, N-[2-(4-Fluoro-1,6-dihydro-2H-3-oxa-6-aza-as-indacen-8-yl)-ethyl]-propionamide], under “1 nM compound”, the activation at 0.001 µM stood at 55.1%. For the same compound, under “100 nM compound”, the activation at 0.1 µM stood at 102%.
As to `CCCC(=O)NCCc1c[nH]c2cc(F)c3c(c12)CCO3` [Compound 15, N-[2-(4-Fluoro-1,6-dihydro-2H-3-oxa-6-aza-as-indacen-8-yl)-ethyl]-butiramide], the “Agonism percentages of MT1, 1 nM” value (1 nM compound) stood at 43.0%. Moreover, the “Agonism percentages of MT1, 100 nM” value (100 nM compound) is listed as 108.2%.
With `CC(C)C(=O)NCCc1c[nH]c2cc(F)c3c(c12)CCO3` [Compound 16, N-[2-(4-Fluoro-1,6-dihydro-2H-3-oxa-6-aza-as-indacen-8-yl)-ethyl]-isobutyramide], the activation at 0.001 µM (1 nM compound) turned out to be 23%. Further, the activation at 0.1 µM (100 nM compound) was 82.3%.
As for `O=C(NCCc1c[nH]c2cc(F)c3c(c12)CCO3)C1CC1` [Compound 17, Cyclopropanecarboxylic acid [2-(4-fluoro-1,6-dihydro-2H-3-oxa-6-aza-as-indacen-8-yl)-ethyl]-amide], where the note is “1 nM compound”, the activation at 0.001 µM was determined as 43.8%. In addition, the activation at 0.1 µM (100 nM compound) was found to be 93.2%.
With `O=C(NCCc1c[nH]c2cc(F)c3c(c12)CCO3)C(F)(F)F` [Compound 18, 2,2,2-Trifluoro-N-[2-(4-fluoro-1,6-dihydro-2H-3-oxa-6-aza-as-indacen-8-yl)-ethyl]-acetamide], the activation at 0.001 µM (1 nM compound) is 59.8%. In addition, the activation at 0.1 µM (100 nM compound) came out at 105%.
For the compound `CCCC(=O)NCC(C)c1c[nH]c2cc(F)c3c(c12)CC(C)O3` (stereo not shown) [Compound 19, N-[2-(4-Fluoro-2-methyl-1,6-dihydro-2H-3-oxa-6-aza-as-indacen-8-yl)-propyl]-butyramide], the activation at 0.001 µM (1 nM compound) worked out at 27.8%. Moreover, the activation at 0.1 µM (100 nM compound) was 96.8%.
For `CCC(=O)NCC(C)c1c[nH]c2cc(F)c3c(c12)CC(C)O3` (stereo not shown) [Compound 20, N-[2-(4-Fluoro-2-methyl-1,6-dihydro-2H-3-oxa-6-aza-as-indacen-8-yl)-propyl]-propionamide], the activation at 0.001 µM (1 nM compound) was found to be 30.2%. For the same compound, the activation at 0.1 µM (100 nM compound) is 94.3%.
Regarding `CC(=O)NCC(C)c1c[nH]c2cc(F)c3c(c12)CC(C)O3` (stereo not shown) [Compound 21, N-[2-(4-Fluoro-2-methyl-1,6-dihydro-2H-3-oxa-6-aza-as-indacen-8-yl)-propyl]-acetamide], the activation at 0.001 µM (1 nM compound) was 43.2%. In addition, under “100 nM compound”, the activation at 0.1 µM was 92.6%.
As for `CC(=O)NCCc1c[nH]c2cc(F)c3c(c12)CC(C)O3` (stereo not shown) [Compound 22, N-[2-(4-Fluoro-2-methyl-1,6-dihydro-2H-3-oxa-6-aza-as-indacen-8-yl)-ethyl]-acetamide], the activation at 0.001 µM (1 nM compound) came out at 50.5%. The activation at 0.1 µM (100 nM compound) came out at 96.8%.
As to `CCC(=O)NCCc1c[nH]c2cc(F)c3c(c12)CC(C)O3` (stereo not shown) [Compound 23, N-[2-(4-Fluoro-2-methyl-1,6-dihydro-2H-3-oxa-6-aza-as-indacen-8-yl)-ethyl]-propionamide], for the setting “1 nM compound”, the activation at 0.001 µM came to 39.1%. The activation at 0.1 µM (100 nM compound) came out at 99.7%.
In the case of `CCCC(=O)NCCc1c[nH]c2cc(F)c3c(c12)CC(C)O3` (stereo not shown) [Compound 24, N-[2-(4-Fluoro-2-methyl-1,6-dihydro-2H-3-oxa-6-aza-as-indacen-8-yl)-ethyl]-butyramide], for the setting “1 nM compound”, the activation at 0.001 µM came to 42.1%. The activation at 0.1 µM (100 nM compound) is 99.8%.
Take `CCCCC(=O)NCCc1c[nH]c2cc(F)c3c(c12)CC(C)O3` (stereo not shown) [Compound 25, Pentanoic acid [2-(4-fluoro-2-methyl-1,6-dihydro-2H-3-oxa-6-aza-as-indacen-8-yl)-ethyl]-amide]: the activation at 0.001 µM (1 nM compound) was 31.9%. In addition, the activation at 0.1 µM (100 nM compound) amounted to 98%.
`CC1Cc2c(c(F)cc3[nH]cc(CCNC(=O)C(C)C)c23)O1` (stereo not shown) [Compound 26, N-[2-(4-Fluoro-2-methyl-1,6-dihydro-2H-3-oxa-6-aza-as-indacen-8-yl)-ethyl]-isobutyramide]: for the setting “1 nM compound”, the activation at 0.001 µM came to 25.7%. Besides, the activation at 0.1 µM (100 nM compound) is 84.8%.
For `CC1Cc2c(c(F)cc3[nH]cc(CCNC(=O)C4CC4)c23)O1` (stereo not shown) [Compound 27, Cyclopropanecarboxylic acid [2-(4-fluoro-2-methyl-1,6-dihydro-2H-3-oxa-6-aza-as-indacen-8-yl)-ethyl]-amide], the activation at 0.001 µM (1 nM compound) came out at 33.8%. Moreover, the activation at 0.1 µM (100 nM compound) is 91.1%.
For the compound `CC1Cc2c(c(F)cc3[nH]cc(CCNC(=O)C(F)(F)F)c23)O1` (stereo not shown) [Compound 28, 2,2,2-Trifluoro-N-[2-(4-fluoro-2-methyl-1,6-dihydro-2H-3-oxa-6-aza-as-indacen-8-yl)-ethyl]-acetamide], the activation at 0.001 µM (1 nM compound) was determined as 36.1%. Further, the activation at 0.1 µM (100 nM compound) was determined as 97.2%.
For `COC(=O)NCCc1c[nH]c2cc(F)c3c(c12)CC(C)O3` (stereo not shown) [Compound 29, [2-(4-Fluoro-2-methyl-1,6-dihydro-2H-3-oxa-6-aza-as-indacen-8-yl)-ethyl]-carbamic acid methyl ester], the activation at 0.001 µM (1 nM compound) came to 17.4%. Moreover, the activation at 0.1 µM (100 nM compound) worked out at 77.3%.
In the case of `CCOC(=O)NCCc1c[nH]c2cc(F)c3c(c12)CC(C)O3` (stereo not shown) [Compound 30, [2-(4-Fluoro-2-methyl-1,6-dihydro-2H-3-oxa-6-aza-as-indacen-8-yl)-ethyl]-carbamic acid ethyl ester], the activation at 0.001 µM (1 nM compound) was determined as 7.1%. Also, the activation at 0.1 µM (100 nM compound) turned out to be 68.1%.
For `CC(C)CC(=O)NCCc1c[nH]c2cc(F)c3c(c12)CC(C)O3` (stereo not shown) [Compound 31, N-[2-(4-Fluoro-2-methyl-1,6-dihydro-2H-3-oxa-6-aza-as-indacen-8-yl)-ethyl]-3-methyl-butyramide], the activation at 0.001 µM (1 nM compound) was determined as 22.3%. For the same compound, the activation at 0.1 µM (100 nM compound) amounted to 90.4%.
As to `CC1Cc2c(c(F)cc3[nH]cc(CCNC(=O)C(C)F)c23)O1` (stereo not shown) [Compound 32, 2-Fluoro-N-[2-(4-fluoro-2-methyl-1,6-dihydro-2H-3-oxa-6-aza-as-indacen-8-yl)-ethyl]-propionamide], the activation at 0.001 µM (1 nM compound) was 38.6%. The activation at 0.1 µM (100 nM compound) was 93.1%.
For `CCNC(=O)NCCc1c[nH]c2cc(F)c3c(c12)CC(C)O3` (stereo not shown) [Compound 33, 1-Ethyl-3-[2-(4-fluoro-2-methyl-1,6-dihydro-2H-3-oxa-6-aza-as-indacen-8-yl)-ethyl]-urea] the same measures were 26.6% and 87.5%.
As to `CC1Cc2c(c(F)cc3[nH]cc(C(C)CNC(=O)C(C)C)c23)O1` (stereo not shown) [Compound 34, N-[2-(4-Fluoro-2-methyl-1,6-dihydro-2H-3-oxa-6-aza-as-indacen-8-yl)-propyl]-isobutyramide], the activation at 0.001 µM (1 nM compound) turned out to be 18.4%. Besides, under “100 nM compound”, the activation at 0.1 µM came out at 95.8%.
Take `CC1Cc2c(c(F)cc3[nH]cc(C(C)CNC(=O)C4CC4)c23)O1` (stereo not shown) [Compound 35, Cyclopropanecarboxylic acid [2-(4-fluoro-2-methyl-1,6-dihydro-2H-3-oxa-6-aza-as-indacen-8-yl)-propyl]-amide]: the activation at 0.001 µM (1 nM compound) turned out to be 30.5%. The activation at 0.1 µM (100 nM compound) stood at 94%.
For the compound `CC(C)CC(=O)NCC(C)c1c[nH]c2cc(F)c3c(c12)CC(C)O3` (stereo not shown) [Compound 36, N-[2-(4-Fluoro-2-methyl-1,6-dihydro-2H-3-oxa-6-aza-as-indacen-8-yl)-propyl]-3-methyl-butyramide], the activation at 0.001 µM (1 nM compound) stood at 20.9%. The activation at 0.1 µM (100 nM compound) worked out at 89.7%.
As to `CC1Cc2c(c(F)cc3[nH]cc(C(C)CNC(=O)C(C)(C)C)c23)O1` (stereo not shown) [Compound 37, N-[2-(4-Fluoro-2-methyl-1,6-dihydro-2H-3-oxa-6-aza-as-indacen-8-yl)-propyl]-2,2-dimethyl-propionamide], the activation at 0.001 µM (1 nM compound) was determined as 6.6%. Also, for the setting “100 nM compound”, the activation at 0.1 µM came out at 52.8%.
For `CC1Cc2c(c(F)cc3[nH]cc(C(C)CNC(=O)C(F)(F)F)c23)O1` (stereo not shown) [Compound 38, 2,2,2-Trifluoro-N-[2-(4-fluoro-2-methyl-1,6-dihydro-2H-3-oxa-6-aza-as-indacen-8-yl)-propyl]-acetamide] the same measures were 36.9% and 101%.
As for `CCCCC(=O)NCC(C)c1c[nH]c2cc(F)c3c(c12)CC(C)O3` (stereo not shown) [Compound 39, Pentanoic acid [2-(4-fluoro-2-methyl-1,6-dihydro-2H-3-oxa-6-aza-as-indacen-8-yl)-propyl]-amide], the activation at 0.001 µM (1 nM compound) was 24.6%. For the same compound, the activation at 0.1 µM (100 nM compound) was 91.4%.
In the case of `COC(=O)NCC(C)c1c[nH]c2cc(F)c3c(c12)CC(C)O3` (stereo not shown) [Compound 40, [2-(4-Fluoro-2-methyl-1,6-dihydro-2H-3-oxa-6-aza-as-indacen-8-yl)-propyl]-carbamic acid methyl ester], for the setting “1 nM compound”, the activation at 0.001 µM was found to be 24%. Moreover, the activation at 0.1 µM (100 nM compound) is 95.2%.
In the case of `CCOC(=O)NCC(C)c1c[nH]c2cc(F)c3c(c12)CC(C)O3` (stereo not shown) [Compound 41, [2-(4-Fluoro-2-methyl-1,6-dihydro-2H-3-oxa-6-aza-as-indacen-8-yl)-propyl]-carbamic acid ethyl ester], the activation at 0.001 µM (1 nM compound) came to 13.1%. Besides, where the note is “100 nM compound”, the activation at 0.1 µM is 78.9%.
